Some test systems named below: NCI-H460; OVCAR-4; SN12C; NCI-H23; MDA-MB-435; HCT-116; BT-549; HOP-92; OVCAR-8; HT-29; PC-3; EKVX; COLO 205; UACC-62; NCI-H226; IGROV-1; MCF7; NCI-H522; SF-539; A498.
Assay in all cases: inhibition of tumour cell growth, NCI panel, 48 h

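Where inhibition never reached the appropriate level, the endpoint shown equals the highest concentration tested. Otherwise, values were interpolated linearly from a five-concentration, 48-hour dose response in 96-well plates. Abbreviation: GI50, concentration required for 50% inhibition of growth.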 The source made the active and inactive calls. Cut-off read from the data, not from the text of the source: active = GI50 up to about 1.1 µM and inactive = higher. A value given as a limit tells only on which side of the number the result lay.

With `Cc1cccc(Nc2nc3ccccc3nc2NS(=O)(=O)c2ccccc2)c1`, the GI50 in the test on NCI-H460 was 15.6 µM (inactive); in the test with OVCAR-4, 2.14 µM (inactive); with SN12C, 22.2 µM (inactive); in the test on NCI-H23, 18.3 µM (inactive); with MDA-MB-435, 46.6 µM (inactive); in the test on HCT-116, 27.4 µM (inactive). Also, the GI50 in the test on BT-549 is 40.1 µM (inactive); in the test with HOP-92, 11 µM (inactive); with OVCAR-8, 29.3 µM (inactive); in the test with HT-29 it was 26.6 µM (inactive); in the test on PC-3, 14.4 µM (inactive); in the test with EKVX, 30.5 µM (inactive). In addition, the GI50 is 16.1 µM (inactive) in the test on COLO 205; 25.6 µM (inactive) in the test with UACC-62; 70 µM (inactive) with NCI-H226; 19.9 µM (inactive) with IGROV-1; 26.5 µM (inactive) in the test with MCF7; 17.3 µM (inactive) in the test with NCI-H522. For the same compound, the GI50 in the test on SF-539 is 33.8 µM (inactive).

For `Cc1c(-c2ccc(O)cc2)n(CCCCCCNCCOC(=O)NCCCc2ccc(N(CCCl)CCCl)cc2)c2ccc(O)cc12`, the GI50 in the test on NCI-H460 was 1.52 µM (inactive); in the test on OVCAR-4, 1.9 µM (inactive); with SN12C, 2.4 µM (inactive); in the test on NCI-H23, 1.78 µM (inactive); with MDA-MB-435 it was 1.69 µM (inactive); in the test with HCT-116, 1.52 µM (inactive). Moreover, the GI50 in the test on BT-549 is 12.4 µM (inactive); with OVCAR-8, 1.38 µM (inactive); in the test with HT-29, 1.59 µM (inactive); in the test with PC-3, 2.47 µM (inactive); with EKVX it was 3.05 µM (inactive); in the test on COLO 205 it was 2.64 µM (inactive). Further, the GI50 in the test on UACC-62 was 1.79 µM (inactive); with IGROV-1, 2.07 µM (inactive); in the test on MCF7 it was 0.766 µM (active); in the test on NCI-H522, 1.69 µM (inactive); in the test on A498, 14.9 µM (inactive); with SF-539 it was 1.64 µM (inactive).

As for `C(=C\c1cc(-c2ccc3ccccc3n2)nc2ccc3ccccc3c12)/c1ccc2ccccc2n1`, the GI50 in the test on NCI-H460 was > 100 µM (inactive); with OVCAR-4, > 100 µM (inactive); in the test with SN12C, > 100 µM (inactive); in the test on NCI-H23, > 10 µM (inactive); in the test with MDA-MB-435, > 100 µM (inactive); in the test with HCT-116, > 100 µM (inactive). The GI50 in the test on BT-549, in the test on OVCAR-8, with HT-29, in the test on PC-3, in the test on EKVX and with COLO 205 was > 100 µM (inactive) in each case. Moreover, the GI50 in the test with UACC-62 is > 100 µM (inactive); with NCI-H226, > 100 µM (inactive); with IGROV-1, > 100 µM (inactive); in the test on MCF7 it was > 100 µM (inactive); in the test on A498 it was > 100 µM (inactive); in the test on SF-539, 62.2 µM (inactive).

Regarding `O=C(O)c1cc2ccccc2c(/N=N/c2ccccc2)c1O`, the GI50 with OVCAR-4 was > 100 µM (inactive); in the test with SN12C it was 23.3 µM (inactive); with NCI-H23, 16.7 µM (inactive); in the test on MDA-MB-435, 15.1 µM (inactive); with HCT-116 it was 35.4 µM (inactive); in the test with BT-549, 20.8 µM (inactive). Moreover, the GI50 was 55.3 µM (inactive) with HOP-92; 37.2 µM (inactive) in the test on OVCAR-8; 11.8 µM (inactive) in the test with HT-29; 18.5 µM (inactive) in the test with PC-3; 23.4 µM (inactive) in the test with EKVX; 17.9 µM (inactive) with COLO 205. Further, the GI50 in the test with UACC-62 is 17.4 µM (inactive); in the test on IGROV-1, 34.1 µM (inactive); in the test with NCI-H522 it was 26.6 µM (inactive); in the test with A498, 33.7 µM (inactive).

For the compound `CCOC(=O)CCC(C(=O)OCC)n1nnc2ccc(Nc3c(C)[n+]([O-])c4cc(Cl)ccc4[n+]3[O-])cc21` (stereo not drawn), the GI50 with NCI-H460 was 35.3 µM (inactive); with OVCAR-4 it was 18.3 µM (inactive); with SN12C, 24.5 µM (inactive); with NCI-H23, 24.8 µM (inactive); in the test on MDA-MB-435, 19.2 µM (inactive); in the test on HCT-116, 25.1 µM (inactive). The GI50 in the test with BT-549 was 26.5 µM (inactive); in the test on HOP-92, 16 µM (inactive); with OVCAR-8, 21.5 µM (inactive); in the test with HT-29, 27.2 µM (inactive); in the test with PC-3 it was 53.8 µM (inactive); with EKVX it was 27.7 µM (inactive). Further, the GI50 in the test on COLO 205 was 19.3 µM (inactive); with UACC-62 it was 17.4 µM (inactive); in the test on NCI-H226 it was 26.5 µM (inactive); with IGROV-1 it was 27.7 µM (inactive); in the test on MCF7 it was 17.9 µM (inactive); with NCI-H522 it was 19.5 µM (inactive). In the test on SF-539, the GI50 is 19.9 µM (inactive).

For the compound `Cc1nc(C)c(C(=O)NNC(N)=S)cc1C(=O)NNC(N)=S`, the GI50 with NCI-H460, in the test with OVCAR-4, with SN12C, with NCI-H23, in the test with MDA-MB-435 and in the test with HCT-116 was > 100 µM (inactive) each time. The GI50 in the test with BT-549, in the test on HOP-92, in the test on OVCAR-8, in the test with HT-29, in the test on PC-3 and in the test on EKVX was > 100 µM (inactive) in each case. Besides, the GI50 in the test on COLO 205, in the test with UACC-62, in the test on NCI-H226, in the test with IGROV-1, with MCF7 and with NCI-H522 was > 100 µM (inactive) in each case. Also, the GI50 in the test on SF-539 is > 100 µM (inactive).

For the compound `O=C(NCc1ccc(Cl)cc1)c1cc2sccc2nc1C(F)(F)F`, the GI50 in the test on OVCAR-4 was 19.8 µM (inactive); in the test with SN12C, 44.8 µM (inactive); in the test on NCI-H23, 45.5 µM (inactive); with MDA-MB-435, > 100 µM (inactive); with HCT-116, 33.3 µM (inactive); in the test on BT-549, 39.9 µM (inactive). The GI50 with HOP-92 is 37.7 µM (inactive); in the test with OVCAR-8, 26.4 µM (inactive); in the test on HT-29 it was > 100 µM (inactive); in the test with PC-3, 48 µM (inactive); in the test on EKVX, 34 µM (inactive); in the test on COLO 205 it was > 100 µM (inactive). Moreover, the GI50 in the test with UACC-62 is 35.2 µM (inactive); in the test on NCI-H226, 19.6 µM (inactive); in the test on IGROV-1 it was 29.6 µM (inactive); in the test on MCF7 it was 61 µM (inactive); in the test on NCI-H522, 29.7 µM (inactive); in the test with SF-539, 27.7 µM (inactive).

With `Cc1ccc(O)c(C2=CC(c3cccc(Br)c3)SC(=N)N2)c1` (stereo not drawn), the GI50 is 20.5 µM (inactive) with NCI-H460; 28.9 µM (inactive) with OVCAR-4; 20.8 µM (inactive) in the test on SN12C; 25.6 µM (inactive) with NCI-H23; 18.7 µM (inactive) in the test with MDA-MB-435; 17.3 µM (inactive) with HCT-116. The GI50 in the test with BT-549 is 29.8 µM (inactive); with HOP-92, 19 µM (inactive); with OVCAR-8, 35.2 µM (inactive); in the test on HT-29 it was 33.7 µM (inactive); in the test with PC-3 it was 26.1 µM (inactive); in the test with EKVX, 21 µM (inactive). Also, the GI50 was 17.5 µM (inactive) in the test with COLO 205; 17.1 µM (inactive) in the test with UACC-62; 26.9 µM (inactive) in the test on NCI-H226; 18.8 µM (inactive) in the test on IGROV-1; 23.3 µM (inactive) with MCF7; 16 µM (inactive) in the test on NCI-H522. The GI50 in the test on SF-539 was 22.4 µM (inactive).

For `c1cnn(C23C4C5C6C4C2C6C53)c1` (stereo not drawn), the GI50 in the test on NCI-H460 is > 100 µM (inactive); in the test on SN12C, > 100 µM (inactive); in the test with NCI-H23 it was > 100 µM (inactive); in the test with MDA-MB-435, > 100 µM (inactive); in the test with HCT-116, > 100 µM (inactive); in the test with BT-549, 71.6 µM (inactive). Moreover, the GI50 in the test with OVCAR-8 is > 100 µM (inactive); in the test on HT-29, > 100 µM (inactive); in the test with PC-3 it was > 100 µM (inactive); in the test with EKVX, > 100 µM (inactive); in the test on COLO 205, > 100 µM (inactive); with NCI-H226, 60.4 µM (inactive). The GI50 in the test with IGROV-1, in the test with MCF7, with NCI-H522, in the test on A498 and with SF-539 was > 100 µM (inactive) in each case.

As to `CC12CC3c4ccccc4CN1C3(c1ccccc1)OC2=O` (stereo not drawn), the GI50 in the test with OVCAR-4, in the test on SN12C, in the test with NCI-H23, in the test on MDA-MB-435, with HCT-116 and in the test on BT-549 was > 100 µM (inactive) in each case. The GI50 in the test with OVCAR-8, in the test on HT-29, in the test on PC-3, in the test with EKVX, with COLO 205 and in the test on UACC-62 was > 100 µM (inactive) throughout. Further, the GI50 in the test with NCI-H226, in the test on IGROV-1, in the test on NCI-H522, in the test with A498 and with SF-539 was > 100 µM (inactive) throughout.

Regarding `CC(=O)NC1C(OC(C)C(=O)NC(C(=O)NC(CCC(=O)NCCCNC2c3ccccc3Nc3cccc([N+](=O)[O-])c32)C(N)=O)C(C)C)C(O)C(CO)OC1(C)OCc1ccccc1` (stereo not drawn), the GI50 in the test on NCI-H460 is 0.108 µM (active); in the test with OVCAR-4 it was 1.78 µM (inactive); with SN12C, 0.822 µM (active); in the test with NCI-H23, 1.61 µM (inactive); in the test with MDA-MB-435, 0.579 µM (active); in the test with HCT-116, 0.256 µM (active). The GI50 in the test on BT-549 is 1.63 µM (inactive); in the test on OVCAR-8, 1.1 µM (active); in the test with HT-29, 0.152 µM (active); in the test on PC-3 it was 1.37 µM (inactive); in the test on EKVX it was 1.54 µM (inactive); in the test on COLO 205 it was 0.556 µM (active). The GI50 is 0.577 µM (active) with UACC-62; 1.13 µM (inactive) in the test on NCI-H226; 1.6 µM (inactive) in the test on IGROV-1; 0.343 µM (active) in the test with MCF7; 0.637 µM (active) with NCI-H522; 1.93 µM (inactive) with A498.

The values above are taken from ChEMBL document CHEMBL1201862, “PubChem BioAssay data set” (2004).
